Reference: PubChem BioAssay (NCI)
“And” between values parts separate entries of the source, which are not always exact repeats. Identical values can stand only once.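 48-hour exposure; five concentrations; linearly interpolated endpoints. GI50: concentration for 50% inhibition of growth. The concentration for full growth arrest is given as TGI.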

What was measured:
Experiment in all cases: NCI tumour cell line growth inhibition, 48 h
OVCAR-3 ovarian = tested on: OVCAR-3 ovarian
SN12C renal = tested on: SN12C renal
SW-620 colon = tested on: SW-620 colon
UACC-257 melanoma = tested on: UACC-257 melanoma
UACC-62 melanoma = tested on: UACC-62 melanoma
UO-31 renal = tested on: UO-31 renal
A498 renal = tested on: A498 renal
IGROV1 ovarian = tested on: IGROV1 ovarian
SF-295 CNS = tested on: SF-295 CNS
BT-549 breast = tested on: BT-549 breast

| SMILES | TGI (OVCAR-3 ovarian) [µM] | TGI (SN12C renal) [µM] | TGI (SW-620 colon) [µM] | TGI (UACC-257 melanoma) | TGI (UACC-62 melanoma) [µM] | TGI (UO-31 renal) | TGI (A498 renal) | TGI (IGROV1 ovarian) [µM] | TGI (SF-295 CNS) [µM] | TGI (BT-549 breast) [µM] | GI50 (BT-549 breast) [µM] | GI50 (IGROV1 ovarian) [µM] |
| --- | --- | --- | --- | --- | --- | --- | --- | --- | --- | --- | --- | --- |
| CC(C)OP(=O)(OC(C)C)/C(=N/Nc1ccc([N+](=O)[O-])cc1)NNC(=O)c1ccccc1 | > 100 | > 100 | > 100 | > 100 µM | 36.5 | > 100 µM |  |  |  |  |  |  |
| CCCc1cn2c(/C=N/N=C(N)N)c(-c3ccc([N+](=O)[O-])cc3)nc2s1 | 0.377 | 3.06 |  | 3.03 µM | 3.35 |  | 10.6 µM | 3.05 | 2.16 |  |  |  |
| Oc1c(Cl)c(Cl)c(O)c(-c2cnc(-c3ncc(-c4c(O)c(Cl)c(Cl)c(O)c4Cl)s3)s2)c1Cl | 52.4 | 66.3 | > 100 | 97.8 µM | 46.8 | 58.7 µM |  | 37 | 41.9 |  |  |  |
| O=C(O)CCC1(CCC(=O)O)CCCCCCCCC(CCC(=O)O)(CCC(=O)O)C(=O)C1=O | > 100 | > 100 | > 100 | > 100 µM | > 100 |  |  |  | > 100 |  |  |  |
| Cc1cc2nc3c(C#N)c4c(c(Cl)n3c2cc1C)CCC4 | 49.7 | 33.8 | 39.3 | > 100 µM |  |  | > 100 µM |  | > 100 | 49 |  |  |
| CC(=O)OC1(C)CC(C)C(=O)C(C(O)CC2CC(=O)NC(=O)C2)C1 (stereo not drawn) | 1.62 |  | 0.129 | 0.348 µM and 0.145 µM | 0.0113 | 0.643 µM and 0.389 µM | 0.266 µM and 0.0863 µM | 0.0489 | 0.03 |  | 0.0148 |  |
| Cc1cc(N(CCC#N)CCC#N)ccc1/C=C(\N=[N+]=[N-])C(=O)NC(=O)COc1ccccc1 | > 100 | > 100 | > 100 | > 100 µM | > 100 | > 100 µM | > 100 µM | > 100 | > 100 |  |  |  |
| COc1ccc(OC)c(CCc2ccccc2CC(=O)O)c1 | > 100 | > 100 | > 100 | > 100 µM | > 100 | > 100 µM | > 100 µM | > 100 | > 100 |  |  |  |
| CCCCCCCC(=O)OC(COC(=O)Cc1ccccc1)COC(=O)C(C)(C)C (stereo not drawn) | > 100 | > 100 | > 100 |  | > 100 | > 100 µM | > 100 µM | > 100 | > 100 |  |  |  |
| COc1c(-c2ccc(F)cc2)oc2c(CC(=O)O)cccc2c1=O | > 100 | > 100 |  | > 100 µM | > 100 | 96.6 µM | > 100 µM | > 100 | > 100 | > 100 |  |  |
| CC(=O)OC1CC2C(=O)CC1(C)C2(C)C (stereo not drawn) | > 100 | > 100 | > 100 | > 100 µM | > 100 | > 100 µM | > 100 µM | > 100 | > 100 |  |  | > 100 |
| CCOC(=O)Cc1ccc(Nc2nc3cc(F)c(F)cc3nc2C(=O)OCC)cc1 | > 100 | > 100 | > 100 | > 100 µM | > 100 | 3.15 µM |  | > 100 | > 100 | > 100 |  |  |
| CC1=C(C(=O)NNC(=O)c2ccccc2O)CC(C(=O)NNC(=O)c2ccccc2O)=C(C)N1 | > 23.4 | > 100 | > 100 | > 100 µM | > 100 | 18.8 µM |  | > 35.4 | > 100 | > 100 |  |  |
| Cc1nc2c(n1Cc1ccc(F)cc1)C(=O)c1ccccc1C2=O | 48.6 | > 100 | > 100 | > 100 µM | 32.3 | > 100 µM |  | > 100 | > 100 |  |  |  |
| CCCCCC1CC(C(C)=O)CN1c1ccc(F)cc1 (stereo not drawn) | 90.1 | > 100 | > 100 | > 100 µM |  | > 100 µM | > 100 µM |  | 63.3 |  |  |  |
| C=C1C(=O)O[C@H]2C1C[C@H](O)/C(C)=C/CC[C@@]1(C)O[C@H]21 (stereo partly drawn) |  | 33.8 | 21.6 | 34.5 µM | 22.9 | 28.6 µM |  | 28.3 | 82.5 |  |  |  |
| CCOC(OCC)[C@@H]1C[C@@H]2N(O[C@H](OC3CCCC3(c3ccccc3)c3ccccc3)[C@H](OC(C)=O)[C@@]2(CC)Cc2ccc(OC)c(OC)c2)O1 (stereo partly drawn) | > 100 | > 100 | > 100 | > 100 µM | > 100 | > 100 µM |  | > 100 | > 100 | > 100 |  |  |
| CC(=O)c1sc2c(c1OC(=O)c1ccccc1)c(=O)n(-c1ccccc1)c(=S)n2-c1ccccc1 | > 62.5 | > 42.5 | > 82.6 | > 23.9 µM | 32.8 | 12.6 µM | 7.87 µM | 54.5 | 16.7 |  |  |  |
| CCC/C=C/C=C\C(=O)O[C@@H]1[C@@H](C)[C@]2(O)[C@@H]3C=C(C)C(=O)[C@H]3CC(COC(C)=O)=C[C@H]2[C@@H]2C(C)(C)[C@]12OC(C)=O | 91.2 | 100 | 70 | 91.5 µM | 82.5 | 92.3 µM | 33.3 µM | 109 | 39.5 |  |  |  |
| CSc1c(S(C)=O)c2ccccc2n1C (stereo not drawn) | > 100 | > 100 | > 100 | > 100 µM | > 100 | > 100 µM | > 100 µM | > 100 | > 100 |  |  |  |
| CC(=O)c1ccc(Nc2nc3ccccc3c3occc23)cc1 | 71.2 | > 100 |  | 31.6 µM | 41.3 | 96.4 µM | 12.3 µM | 36.2 | 41.1 | 64.4 |  |  |
| N#C/C(=C\c1ccccc1F)C(=O)c1ccccc1 | > 100 | > 100 | > 100 | > 100 µM | > 100 | > 100 µM | > 100 µM | > 100 | > 100 |  |  |  |
| Cc1cnc2c(c1)C(=O)N(c1ccc(Br)cc1)S2(=O)=O | > 100 | > 100 | > 100 | > 100 µM | > 100 | > 100 µM |  | > 100 | > 100 | > 100 |  |  |
| O=C(N/N=C/c1cc(Cl)cc(Cl)c1[O-])c1ccccc1O.O=C(N/N=C/c1cc(Cl)cc(Cl)c1[O-])c1ccccc1O.[Fe+2] | 38.5 |  | 48.2 | 85.8 µM | 52.4 | 48.7 µM |  | 56.5 | 33.9 |  |  |  |
